This passage reports TGI results from PubChem BioAssay (NCI).

Test systems include SF-539 CNS; SF-295 CNS; OVCAR-8 ovarian; HCT-116 colon; A498 renal; OVCAR-4 ovarian; ACHN renal; UACC-257 melanoma; 786-0 renal; LOX IMVI melanoma.
Common to all, as to test: NCI tumour cell line growth inhibition, 48 h

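48-hour exposure; five concentrations; linearly interpolated endpoints. The concentration for full growth arrest is given as TGI.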

As to `COc1cc(/C=[N+](\[O-])c2ccccc2Cl)ccc1OC(=S)S`, the TGI with SF-539 CNS was > 100 µM; in the experiment on SF-295 CNS, > 100 µM; with OVCAR-8 ovarian, > 100 µM; in the experiment on HCT-116 colon, > 100 µM; with A498 renal, > 100 µM; with OVCAR-4 ovarian it was 27.8 µM. The TGI in the experiment on ACHN renal, with UACC-257 melanoma, in the experiment on 786-0 renal and in the experiment on LOX IMVI melanoma was > 100 µM in each case.
As for `Cc1ccnc2[nH]c(-c3ccc(Cl)cc3)cc(=O)c12`, the TGI is > 100 µM with SF-539 CNS; > 100 µM with SF-295 CNS; > 100 µM in the experiment with OVCAR-8 ovarian; > 100 µM in the experiment with HCT-116 colon; 46.6 µM in the experiment with A498 renal; > 100 µM with OVCAR-4 ovarian. Also, the TGI in the experiment with ACHN renal, in the experiment on UACC-257 melanoma, in the experiment with 786-0 renal and with LOX IMVI melanoma was > 100 µM throughout.
As to `Nc1nc(Cl)cc(OCC2(CO)CCCCC2)n1`, the TGI in the experiment on SF-539 CNS, with SF-295 CNS, with OVCAR-8 ovarian, with HCT-116 colon, with A498 renal and in the experiment with OVCAR-4 ovarian was > 100 µM in each case. The TGI in the experiment on ACHN renal, in the experiment on UACC-257 melanoma, in the experiment with 786-0 renal and in the experiment on LOX IMVI melanoma was > 100 µM in each case.
For the compound `C#CCN(Cc1ccc2nc(-c3ccccc3)c(Cl)nc2c1)c1ccc(Cl)c(Cl)c1`, the TGI with SF-539 CNS, in the experiment on SF-295 CNS, in the experiment on OVCAR-8 ovarian, with HCT-116 colon, with A498 renal and in the experiment with OVCAR-4 ovarian was > 100 µM in each case. Moreover, the TGI in the experiment on ACHN renal, with UACC-257 melanoma, in the experiment with 786-0 renal and with LOX IMVI melanoma was > 100 µM throughout.
Regarding `COc1cc([C@@H]2c3cc4c(cc3[C@H](OC3OC5COC(C(C)C)OC5C(O)C3O)C3COC(=O)[C@@H]32)OCO4)cc(OC)c1OC` (stereo not given in full), the TGI was > 25.9 µM in the experiment on SF-539 CNS; > 23.8 µM with SF-295 CNS; 30.1 µM with OVCAR-8 ovarian; 7.8 µM in the experiment with HCT-116 colon; 9.96 µM with A498 renal; > 100 µM in the experiment with OVCAR-4 ovarian. The TGI was 21.2 µM in the experiment on ACHN renal, 22.6 µM in the experiment on UACC-257 melanoma, 12.5 µM with 786-0 renal and 27 µM in the experiment with LOX IMVI melanoma.
Take `C1=Nc2ccc(cc2)-c2ccc(cc2)N=Cc2ccccc2OCc2cccc(n2)COc2ccccc21`: the TGI in the experiment with SF-539 CNS was > 66.3 µM; in the experiment on SF-295 CNS, > 75.9 µM; in the experiment on OVCAR-8 ovarian, > 100 µM; in the experiment with HCT-116 colon it was > 100 µM; with A498 renal, > 100 µM; with OVCAR-4 ovarian, > 100 µM. Also, the TGI is > 72.9 µM with ACHN renal, > 100 µM in the experiment on UACC-257 melanoma, 33.1 µM with 786-0 renal and > 100 µM in the experiment with LOX IMVI melanoma.
As to `O=C1/C(=C/Cc2ccco2)N=C(c2ccccc2)N1c1nc2ccc(Sc3ccccc3)cc2[nH]1`, the TGI with SF-539 CNS is > 100 µM; in the experiment with SF-295 CNS it was > 100 µM; in the experiment with OVCAR-8 ovarian, 62.6 µM; in the experiment on HCT-116 colon, 40.7 µM; in the experiment with A498 renal it was 30.7 µM; in the experiment on OVCAR-4 ovarian, 86.3 µM. The TGI is 44.9 µM in the experiment on ACHN renal, 57.5 µM in the experiment on UACC-257 melanoma, 38.5 µM in the experiment on 786-0 renal and 43.7 µM in the experiment with LOX IMVI melanoma.
As to `COC(=O)C1=C(C(=O)OC)SC2(S1)C(C(=O)OC)=C(C(=O)OC)Sc1c2ssc1=O`, the TGI worked out at 3.35 µM with SF-539 CNS; 27.6 µM with SF-295 CNS; 2.69 µM in the experiment on OVCAR-8 ovarian; 1.78 µM in the experiment on HCT-116 colon; 3.68 µM in the experiment with A498 renal; 2.79 µM with OVCAR-4 ovarian. In addition, the TGI with ACHN renal came out at 2.22 µM; with UACC-257 melanoma, 3.59 µM; in the experiment on 786-0 renal, 1.21 µM; in the experiment on LOX IMVI melanoma it was 0.817 µM.
In the case of `Cc1ccc(S(=O)(=O)N(CC(O)COc2ccccc2)c2ccccc2Cl)cc1` (stereo not given), the TGI worked out at 33.2 µM in the experiment on SF-539 CNS; 43.5 µM in the experiment with SF-295 CNS; 33.5 µM with OVCAR-8 ovarian; 27.7 µM with HCT-116 colon; 35 µM with A498 renal; 26.1 µM in the experiment on OVCAR-4 ovarian. Also, the TGI in the experiment on ACHN renal worked out at 33.7 µM; in the experiment on UACC-257 melanoma, 29.3 µM; with 786-0 renal it was 32.4 µM; in the experiment with LOX IMVI melanoma, 38.8 µM.
`COC(=O)c1cc(NC(=O)Cn2c3ccccc3c3ccccc32)cn1C`: the TGI is 63.1 µM in the experiment with SF-539 CNS; 86.3 µM in the experiment on SF-295 CNS; > 100 µM in the experiment on OVCAR-8 ovarian; > 100 µM with HCT-116 colon; > 100 µM in the experiment on A498 renal; 74.9 µM in the experiment with OVCAR-4 ovarian. The TGI is > 100 µM in the experiment on ACHN renal, > 100 µM in the experiment on UACC-257 melanoma, 72.2 µM in the experiment with 786-0 renal and > 100 µM in the experiment with LOX IMVI melanoma.
